The term EC50 denotes the concentration at which the effect is half-maximal. What is called AC50 is the concentration at which the activity in the assay is half-maximal.

The text below walks through data of ChEMBL document CHEMBL1201862, “PubChem BioAssay data set” (2004).

Experiment [1] has as its target T1, Streptokinase A (Streptococcus pyogenes serotype M1, UniProt P10520).
T1 sequence (P10520 whole entry): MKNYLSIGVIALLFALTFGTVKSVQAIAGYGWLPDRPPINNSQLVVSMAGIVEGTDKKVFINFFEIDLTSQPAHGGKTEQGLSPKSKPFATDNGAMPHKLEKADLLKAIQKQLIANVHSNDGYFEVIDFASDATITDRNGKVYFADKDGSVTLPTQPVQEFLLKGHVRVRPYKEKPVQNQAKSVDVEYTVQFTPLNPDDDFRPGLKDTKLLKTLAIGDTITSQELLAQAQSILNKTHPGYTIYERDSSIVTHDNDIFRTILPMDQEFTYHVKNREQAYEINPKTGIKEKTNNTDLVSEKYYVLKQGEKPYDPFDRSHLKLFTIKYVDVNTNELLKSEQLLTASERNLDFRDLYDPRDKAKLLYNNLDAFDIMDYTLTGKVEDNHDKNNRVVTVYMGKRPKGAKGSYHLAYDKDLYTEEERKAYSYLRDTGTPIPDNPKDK
Kind of experiment: S. pyogenes streptokinase expression inhibitors, potency, dose response, plasminogen activation absorbance, OD405 (AID 1914).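 Also: secreted streptokinase activity via plasminogen activation per viability signal from cell pellet.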 In kind it is functional, Streptococcus pyogenes M1 GAS.

For experiment [2], the system named is Streptococcus. As to the kind of experiment: Group A Streptococcus viability loss, dose response, counter-screen for streptokinase expression inhibitor project, luminescence, BacTiterGlo (AID 1915).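 Also: potency for reduction of bacterial viability or growth.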 Format: functional, organism-based. In general terms: Counterscreens check selectivity or assay interference.
Experiment [3] concerns Streptococcus sp. 'group A'. Kind of experiment: growth inhibition of control SK(-) GAS strain, dose response, counter-screen for streptokinase expression inhibitor project, luminescence, kanamycin, BacTiterGlo, confirmation (AID 1900). In kind it is functional, organism-based.
Experiment [4] can be described thus: cells. Format: functional, cell-based.
Experiment [5] can be described thus: cells. In kind it is functional, cell-based. The source holds these as a separate data set.
Experiment [6] in a line: Shn3 3'UTR reporter inhibitors, dose response, cell-based, Clone20 osteoblasts, firefly luciferase, cherry-picked (AID 624132).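 Also: firefly luciferase luminescence from reporter carrying the Shn3 3'UTR in osteoblasts.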 In kind it is functional.
Experiment [7] is described as follows: cytotoxicity toward NIH3T3 fibroblasts, dose response, counter-screen, cell-based, ATP luminescence, mouse fibroblasts (AID 2010).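 Also: cells exposed to compound for about 90 hours before reading.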 Format: functional.
The nature of experiment [8]: inhibitors of intracellular T. cruzi replication, confirmation, NIH3T3 host cells, beta-gal luminescence (AID 2044).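 Also: intracellular parasites grown in NIH/3T3 mouse fibroblasts as host cells; luminescent beta-galactosidase reporter signal from transgenic T. cruzi replicating inside host cells; inhibitors lower the luminescence signal.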 Format: functional, cell-based.
Experiment [9] is described as follows: HepG2 cell cytotoxicity, dose response, cytotoxicity control for Shn3 inhibitor project, CellTiter-Glo, cherry-picked (AID 624134). In kind it is functional, cell-based.
Experiment [10] is described as follows: control 3'UTR Renilla luciferase suppression, dose response, counter-screen for Shn3 inhibitor project, cell-based, Clone20-Shn3RL, cherry-picked (AID 624133). In kind it is functional.
A short description of experiment [11]: inhibitors of SNCA 5'UTR-driven reporter translation, confirmation, H4 neuroglioma cells, luminescence (AID 1988). In kind it is functional, cell-based.
Experiment [12] in a line: Luminescence Cell-Based Dose Response HTS to Identify Inhibitors of 5'UTR Stem-Loop Driven Prion Protein mRNA Translation in H4 Neuroglioblastoma Cells. [Related pubchem assays: 1827 (Project Summary), 1813 (Primary HTS)]. Format: functional.
Experiment [13] can be described thus: inhibitors of firefly luciferase expression or activity, dose response, H4 neuroglioma cells, luminescence (AID 1990). Format: functional, cell-based.
A short description of experiment [14]: Luminescence Cell-Based Dose Confirmation HTS to Identify Inhibitors of Platelet Dense Granule Release. [Related pubchem assays: 1663 (Primary HTS), 1678 (Summary of Project)]. In kind it is functional.
In experiment [15] the target is Luciferin 4-monooxygenase (Photinus pyralis, UniProt P08659). Kind of experiment: firefly luciferase enzyme inhibitors, dose response, biochemical, luminescence (AID 1891).
Sequence of Luciferin 4-monooxygenase (P08659 whole entry): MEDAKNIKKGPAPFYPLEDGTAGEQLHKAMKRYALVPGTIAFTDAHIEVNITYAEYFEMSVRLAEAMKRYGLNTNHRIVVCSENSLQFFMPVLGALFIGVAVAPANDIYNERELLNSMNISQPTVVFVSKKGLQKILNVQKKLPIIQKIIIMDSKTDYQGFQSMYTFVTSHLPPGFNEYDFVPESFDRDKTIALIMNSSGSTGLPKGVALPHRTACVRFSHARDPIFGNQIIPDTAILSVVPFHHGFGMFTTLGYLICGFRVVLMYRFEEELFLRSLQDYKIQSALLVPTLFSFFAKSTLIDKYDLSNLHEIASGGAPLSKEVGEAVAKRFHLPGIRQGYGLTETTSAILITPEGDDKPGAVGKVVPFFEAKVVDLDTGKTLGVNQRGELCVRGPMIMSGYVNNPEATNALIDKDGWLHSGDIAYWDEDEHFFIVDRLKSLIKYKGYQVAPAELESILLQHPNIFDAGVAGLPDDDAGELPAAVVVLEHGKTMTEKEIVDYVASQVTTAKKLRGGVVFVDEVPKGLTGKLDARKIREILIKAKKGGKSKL

Activity calls are given as the source filed them. Rule as the data show it, for most assays here: actives have a measured EC50 and inactives only a lower limit.

As for `COc1ccc(-c2cc3nc(-c4ccccc4)cc(N4CCCC(O)C4)n3n2)cc1` (stereo unspecified), the EC50 in experiment [1] was > 150 µM (not active); in experiment [2], 14.3 µM (active); in experiment [3], 6.75 µM (active).

As for `COCCn1c(-c2ccc(OC)cc2)cnc1SCC(=O)Nc1ccc(OC)cc1OC`, the EC50 in [4] and in experiment [5] was > 350 µM (not active) each time.

For `CCn1c(SCC(=O)c2cc(C)ccc2C)nc2cc(S(=O)(=O)N3CCOCC3)ccc21`, the EC50 in experiment [4] and in [5] was > 350 µM (not active) throughout.

With `CC(C)(C)n1nnnc1C(c1cccs1)N1CCCC2(CCCCC2)C1` (stereo unspecified), the AC50 was 21.7 µM (active) in experiment [6] and > 70 µM (inactive) in experiment [9]. The results for the EC50 in [7] and in [8] were > 60 µM (not active) and 2.15 µM (active), respectively.

In the case of `CC(C)[C@@H](C(=O)NC1CCCC1)N1C(=O)N2CCc3c([nH]c4ccccc34)[C@@]2(C)C1=O`, the results for the EC50 in experiment [1], in [2] and in experiment [3] were > 150 µM (not active), > 150 µM (not active) and 30.2 µM (active), respectively.

In the case of `O=C(CSc1nnc(-c2ccco2)n1Cc1ccco1)NCc1ccccc1`, the EC50 in [4] and in experiment [5] was > 350 µM (not active) in each case.

Regarding `CC(=O)N1CCC(=NNc2nc3ccccc3[nH]2)CC1`, the EC50 in experiment [4] was 32.3 µM (active); in experiment [5] it was > 350 µM (not active).

In the case of `N=c1c2c(-c3ccccc3)c(-c3ccccc3)oc2ncn1Cc1ccco1`, the EC50 in experiment [1] is 17.5 µM (active); in [2], 30.3 µM (active); in experiment [3] it was 6.44 µM (active).

For `COc1ccc(CCNC(=O)c2ccc(CNS(=O)(=O)c3ccc(C(C)(C)C)cc3)cc2)cc1OC`, the EC50 in [1] is > 150 µM (not active); in experiment [2] it was 35.9 µM (active).

On to `COc1ccc(/C=C2/Sc3ccc(C(=O)N4CCc5ccccc5C4)cc3NC2=O)cc1`, for which the results for the EC50 in experiment [1], in experiment [2] and in experiment [3] were > 150 µM (not active), 4.98 µM (active) and 1.73 µM (active), respectively.

For the compound `COc1ccc(S(=O)(=O)N2CCN(C(=O)c3cc(-c4ccc(Br)cc4)[nH]n3)CC2)cc1OC`, the AC50 was 4.76 µM (active) in experiment [10], 4.55 µM (active) in [6] and 55.6 µM (active) in [9].

For `CCCCCOc1ccc(Br)cc1CSC(=N)N`, the AC50 in experiment [10] was 10.5 µM (active); in [6], 1.47 µM (active); in experiment [9] it was 11.3 µM (active).

Take `CCCn1c2ccccc2c2cnn(CC(=O)NC3CCCC(C)C3C)c(=O)c21` (stereo unspecified): the EC50 in experiment [4] and in experiment [5] was > 350 µM (not active) throughout.

Consider `CC(C)c1ccc(-c2c(C#N)c(N)nc3c2CCCCC3)cc1`, for which the concentration giving a half-maximal response (EC50) in experiment [11] is 41.9 µM (active); in experiment [12], > 120 µM (not active); in [13], > 120 µM (not active); in experiment [4] it was > 350 µM (not active); in experiment [5], > 350 µM (not active).

With `COc1ccccc1N(C)S(=O)(=O)c1ccc(C(=O)Nc2cc(F)ccc2C)cc1`, the figures for the AC50 in experiment [10], in experiment [6] and in experiment [9] were 26.5 µM (active), 13.8 µM (active) and > 70 µM (inactive), respectively.

`COc1ccc(CC(N)c2csc(NC(=O)c3cc(C(C)(C)C)nn3Cc3ccccc3)n2)cc1` (stereo unspecified): the AC50 in [10] is 22.9 µM (active); in [6] it was 9.53 µM (active); in experiment [9] it was 9.69 µM (active).

On to `COc1ccc(/C=N/NC(=S)Nc2cc(S(=O)(=O)N3CCOCC3)ccc2N2CCOCC2)cc1O`, for which the EC50 in [4] and in [5] was > 350 µM (not active) throughout.

Turning to `O=C(N/N=C/c1cc2cc3c(cc2nc1Cl)OCO3)c1ccncc1`, the EC50 in [4] was > 350 µM (not active); in [14] it was > 112 µM (not active); in [15], > 112 µM (not active); in experiment [5] it was > 350 µM (not active).
